Assay results as given in ChEMBL document CHEMBL3407408, “Design and synthesis of a new class of cryptophycins based tubulin inhibitors” (Eur J Med Chem, 2015).
Active and inactive are the calls of the source. No cut-off for these calls is given here.

Experiments:
HeLa = assay: cells; conditions: Homo sapiens, 48 h
Description: Cytotoxicity against human HeLa cells after 48 hrs by MTT assay

A549 [1] = assay: cells; conditions: Homo sapiens, A549, 48 h
Description: Cytotoxicity against human A549 cells after 48 hrs by MTT assay

A549 [2] = assay: Cell cycle arrest in human A549 cells assessed as accumulation at S phase at 10 uM after 24 hrs by propidium iodide staining-based flow cytometric analysis (reference value: 26%); assay type: functional
A549 [3] = assay: Cell cycle arrest in human A549 cells assessed as accumulation at G1 phase at 30 uM after 24 hrs by propidium iodide staining-based flow cytometric analysis (reference value: 69%); assay type: functional
A549 [4] = assay: Induction of apoptosis in human A549 cells assessed as shrinkage of cell size at 10 to 30 uM after 24 hrs by phase contrast microscopic analysis; assay type: functional, cell-based
A549 [5] = assay: Cell cycle arrest in human A549 cells assessed as accumulation at sub-G0 phase at 10 uM after 24 hrs by propidium iodide staining-based flow cytometric analysis (reference value: 5%); assay type: functional
A549 [6] = assay: Cell cycle arrest in human A549 cells assessed as accumulation at S phase at 30 uM after 24 hrs by propidium iodide staining-based flow cytometric analysis (reference value: 26%); assay type: functional
A549 [7] = assay: Induction of apoptosis in human A549 cells assessed as cellular blebs at 10 to 30 uM after 24 hrs by phase contrast microscopic analysis; assay type: functional, cell-based
A549 [8] = assay: Cell cycle arrest in human A549 cells assessed as accumulation at G2/M phase at 10 uM after 24 hrs by propidium iodide staining-based flow cytometric analysis (reference value: 5%); assay type: functional
A549 [9] = assay: Induction of apoptosis in human A549 cells assessed as […] at 10 to 30 uM after 24 hrs by phase contrast microscopic analysis; assay type: functional, cell-based
A549 [10] = assay: Downregulation of alpha-tubulin protein expression in human A549 cells at 10 to 30 uM after 24 hrs by Western blot analysis; assay type: functional, cell-based
A549 [11] = assay: Cell cycle arrest in human A549 cells assessed as accumulation at G2/M phase at 30 uM after 24 hrs by propidium iodide staining-based flow cytometric analysis (reference value: 5%); assay type: functional
[12] = Cytotoxicity against human PC3 cells after 48 hrs by MTT assay; assay type: functional, cell-based; conditions: PC-3, 48 h
A549 [13] = assay: Cell cycle arrest in human A549 cells assessed as increase in hypo diploid sub-G0 DNA fraction after 24 hrs by propidium iodide staining-based flow cytometric analysis; assay type: functional
A549 [14] = assay: Induction of apoptosis in human A549 cells assessed as formation of multiple apoptotic bodies at 10 to 30 uM after 24 hrs by Hoechst 33258 staining-based inverted fluorescence microscopic analysis; assay type: functional, cell-based
A549 [15] = assay: Cell cycle arrest in human A549 cells assessed as accumulation at sub-G0 phase at 30 uM after 24 hrs by propidium iodide staining-based flow cytometric analysis (reference value: 5%); assay type: functional
A549 [16] = assay: Downregulation of beta-tubulin protein expression in human A549 cells at 10 to 30 uM after 24 hrs by Western blot analysis; assay type: functional, cell-based
A549 [17] = assay: Cell cycle arrest in human A549 cells assessed as accumulation at G1 phase at 10 uM after 24 hrs by propidium iodide staining-based flow cytometric analysis (reference value: 69%); assay type: functional
[18] = Cytotoxicity against human FR2 cells after 48 hrs by MTT assay; assay type: cell-based; conditions: FR2, 48 h
A549 [19] = assay: Cell cycle arrest in human A549 cells assessed as accumulation at G2/M phase at 1 uM by propidium iodide staining-based flow cytometric analysis (reference value: 5%); assay type: functional

| SMILES | IC50 (HeLa) | IC50 (A549 [1]) | IC50 [12] | IC50 [18] | other results |
| --- | --- | --- | --- | --- | --- |
| COc1ccc(C[C@@H]2NC(=O)/C=C/C[C@@H](c3ccc([N+](=O)[O-])cc3)OC(=O)[C@H](CC(C)C)OC(=O)CCNC2=O)cc1 | 40 µM | 11 µM | 70 µM | 78 µM | Activity (A549 [2]): 25%; Activity (A549 [3]): 80%; Activity (A549 [4]): Active; Activity (A549 [5]): 19%; Activity (A549 [6]): 1%; Activity (A549 [7]): Active; Activity (A549 [8]): 10%; Activity (A549 [9]): Active; Activity (A549 [10]): Active; Activity (A549 [11]): 19%; Activity (A549 [13]): Dose-dependent effect; Activity (A549 [14]): Active; Activity (A549 [15]): 49%; Activity (A549 [16]): Active; Activity (A549 [17]): 65% |
| COc1ccc(C[C@H]2NC(=O)/C=C/C[C@@H](c3ccc([N+](=O)[O-])cc3)OC(=O)[C@H](CC(C)C)OC(=O)CCNC2=O)cc1 | 28 µM | 10 µM | 15 µM | 97 µM | Activity (A549 [2]): 35%; Activity (A549 [3]): 62%; Activity (A549 [4]): Active; Activity (A549 [5]): 11%; Activity (A549 [6]): 30%; Activity (A549 [7]): Active; Activity (A549 [8]): 6%; Activity (A549 [9]): Active; Activity (A549 [10]): Active; Activity (A549 [11]): 8%; Activity (A549 [13]): Dose-dependent effect; Activity (A549 [14]): Active; Activity (A549 [15]): 26%; Activity (A549 [16]): Active; Activity (A549 [17]): 59% |
| COc1ccc(C[C@H]2NC(=O)/C=C/C[C@@H](c3ccccc3[N+](=O)[O-])OC(=O)[C@H](CC(C)C)OC(=O)CCNC2=O)cc1 | 29 µM | 15 µM | 67 µM | > 100 µM |  |
| COc1ccc(C[C@@H]2NC(=O)/C=C/C[C@@H](c3ccc(Br)cc3)OC(=O)[C@H](CC(C)C)OC(=O)CCNC2=O)cc1 | 60 µM | 56 µM | 68 µM | > 100 µM |  |
| COc1ccc(C[C@@H]2NC(=O)/C=C/C[C@@H](c3cccc([N+](=O)[O-])c3)OC(=O)[C@H](CC(C)C)OC(=O)CCNC2=O)cc1 | 35 µM | 90 µM | 100 µM | 93 µM |  |
| COc1ccc(C[C@H]2NC(=O)/C=C/C[C@@H](c3ccc(Br)cc3)OC(=O)[C@H](CC(C)C)OC(=O)CCNC2=O)cc1 | 55 µM | 60 µM | 60 µM | 87 µM |  |
| COc1ccc(C[C@@H]2NC(=O)/C=C/C[C@@H](c3c(F)c(F)c(F)c(F)c3F)OC(=O)[C@H](CC(C)C)OC(=O)CCNC2=O)cc1 | 100 µM | > 100 µM | 100 µM | 79 µM |  |
| CC(=O)O[C@H]1C(=O)[C@@]2(C)[C@H]([C@H](OC(=O)c3ccccc3)[C@]3(O)C[C@H](OC(=O)[C@H](O)[C@@H](NC(=O)c4ccccc4)c4ccccc4)C(C)=C1C3(C)C)[C@]1(OC(C)=O)CO[C@@H]1C[C@@H]2O [PACLITAXEL] |  | 0.025 µM | 0.012 µM | 16 µM | Activity (A549 [19]): 45% |
| COc1ccc(C[C@H]2NC(=O)/C=C/C[C@@H](c3ccc(Cl)cc3Cl)OC(=O)[C@H](CC(C)C)OC(=O)CCNC2=O)cc1 | 90 µM | 100 µM | 100 µM | > 100 µM |  |
| COc1ccc(C[C@@H]2NC(=O)/C=C/C[C@@H](c3ccc(Cl)cc3Cl)OC(=O)[C@H](CC(C)C)OC(=O)CCNC2=O)cc1 | 33 µM | 45 µM | 32 µM | > 100 µM |  |
| COc1ccc(C[C@H]2NC(=O)/C=C/C[C@@H](c3cccc([N+](=O)[O-])c3)OC(=O)[C@H](CC(C)C)OC(=O)CCNC2=O)cc1 | > 100 µM | > 100 µM | > 100 µM | > 100 µM |  |
| COc1ccc(C[C@H]2NC(=O)/C=C/C[C@@H](c3c(F)c(F)c(F)c(F)c3F)OC(=O)[C@H](CC(C)C)OC(=O)CCNC2=O)cc1 | 78 µM | 30 µM | 70 µM | > 100 µM |  |
| COc1ccc(C[C@@H]2NC(=O)/C=C/C[C@@H](c3ccccc3[N+](=O)[O-])OC(=O)[C@H](CC(C)C)OC(=O)CCNC2=O)cc1 | 47 µM | 13 µM | 100 µM | 90 µM |  |
